From patent publication US20110053916A1 (Vertex Pharmaceuticals Incorporated, priority 2009, published 2011)

target: T1, PknB (Mycobacterium tuberculosis, UniProt P9WI81); assay: biochemical; parameters: species or system M. tuberculosis; settings: 3 nM PknB, 6 uM GarA, 3 μM ATP, 30 min; competitive tight-binding fit; several symbols in a cell = repeat determinations
T1 construct: made in house
T1 sequence (P9WI81 whole entry): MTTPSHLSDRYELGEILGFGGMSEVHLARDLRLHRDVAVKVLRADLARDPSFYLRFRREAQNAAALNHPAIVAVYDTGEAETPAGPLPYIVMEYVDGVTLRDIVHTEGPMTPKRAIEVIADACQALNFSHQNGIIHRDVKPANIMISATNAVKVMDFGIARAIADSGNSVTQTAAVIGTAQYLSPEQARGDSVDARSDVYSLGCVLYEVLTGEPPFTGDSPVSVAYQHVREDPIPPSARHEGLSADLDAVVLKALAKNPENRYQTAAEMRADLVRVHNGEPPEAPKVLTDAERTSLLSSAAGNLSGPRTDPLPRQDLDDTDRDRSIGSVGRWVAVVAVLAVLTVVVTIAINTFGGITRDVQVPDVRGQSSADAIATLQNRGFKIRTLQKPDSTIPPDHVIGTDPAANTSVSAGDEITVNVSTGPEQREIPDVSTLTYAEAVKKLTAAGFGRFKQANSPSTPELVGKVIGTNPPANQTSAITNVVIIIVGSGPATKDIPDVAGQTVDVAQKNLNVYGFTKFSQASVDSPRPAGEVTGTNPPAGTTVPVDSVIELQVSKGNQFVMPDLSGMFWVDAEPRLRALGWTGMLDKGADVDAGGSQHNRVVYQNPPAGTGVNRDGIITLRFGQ

Question: How did the “Ki Values” turn out when NS(=O)(=O)c1cc(-c2ncc(Cl)c(Nc3cc(C4CC4)[nH]n3)n2)ccc1Cl [Compound 58, 2-chloro-5-[5-chloro-4-[(5-cyclopropyl-1H-pyrazol-3-yl)amino]-pyrimidin-2-yl]-benzenesulfonamide] was run?
Answer: B, C, C

Question: For N#CCc1ccc(Nc2ncc(Cl)c(Nc3cc(C4CC4)[nH]n3)n2)cc1 [Compound 59, 2-[4-[[5-chloro-4-[(5-cyclopropyl-1H-pyrazol-3-yl)amino]-pyrimidin-2-yl]amino]phenyl]acetonitrile], which “Ki Values” is on record?
Answer: B**, B*, B*

Question: Which “Ki Values” does the source give for NC(=O)c1ccc(Nc2nccc(Nc3cc(C4CC4)n[nH]3)n2)cc1 [Compound 60, 4-[[4-[(5-cyclopropyl-2H-pyrazol-3-yl)amino]pyrimidin-2-yl]amino]benzamide] here?
Answer: C, C, D

Question: O=S(=O)(NCCO)c1ccc(-c2ncc(Cl)c(Nc3cc(C4CC4)[nH]n3)n2)cc1 [Compound 61, 4-[5-chloro-4-[(5-cyclopropyl-1H-pyrazol-3-yl)amino]-pyrimidin-2-yl]-N-(2-hydroxyethyl)benzenesulfonamide] was tested. Which “Ki Values” did it give?
Answer: A, C, D

Question: Which “Ki Values” does the source give for c1cc(Nc2cc(C3CC3)[nH]n2)nc(N2CCCCC2)n1 [Compound 64, N-(5-cyclopropyl-1H-pyrazol-3-yl)-2-(1-piperidyl)pyrimidin-4-amine] here?
Answer: A*, B**

Question: With c1cc(Nc2cc(C3CC3)[nH]n2)nc(N2CCC(N3CCCCC3)CC2)n1 [Compound 65, N-(5-cyclopropyl-1H-pyrazol-3-yl)-2-[4-(1-piperidyl)-1-piperidyl]-pyrimidin-4-amine] as the compound, how does the “Ki Values” read?
Answer: C, D, D

Question: How did the “Ki Values” turn out when COc1cnc(N2CCCCC2)nc1Nc1cc(C2CC2)[nH]n1 [Compound 68, N-(5-cyclopropyl-1H-pyrazol-3-yl)-5-methoxy-2-(1-piperidyl)pyrimidin-4-amine] was run?
Answer: A, B**

Question: With CC(C)(O)c1ccc(-c2ncc(Cl)c(Nc3cc(C4CC4)[nH]n3)n2)s1 [Compound 87, 2-(5-(5-chloro-4-(5-cyclopropyl-1H-pyrazol-3-ylamino)pyrimidin-2-yl)thiophen-2-yl)propan-2-ol] as the compound, how does the “Ki Values” read?
Answer: A**, A*

Question: O=S(=O)(NCCO)c1cccc(-c2ncc(Cl)c(Nc3cc(C4CC4)[nH]n3)n2)c1 [Compound 95, 3-[5-chloro-4-[(5-cyclopropyl-1H-pyrazol-3-yl)amino]-pyrimidin-2-yl]-N-(2-hydroxyethyl)benzenesulfonamide] was tested. Which “Ki Values” did it give?
Answer: A*, A

Question: How did the “Ki Values” turn out when C#Cc1cnc(Nc2ccc(CC#N)cc2)nc1Nc1cc(C2CC2)[nH]n1 [Compound 101, 2-(4-(4-(5-Cyclopropyl-1H-pyrazol-3-ylamino)-5-ethynylpyrimidin-2-ylamino)phenyl)acetonitrile] was run?
Answer: A*, A*, A

Question: Which “Ki Values” does the source give for O=C(NC1CCCCC1)c1nccc(Nc2cc(C3CC3)n[nH]2)n1 [Compound 109, N-cyclohexyl-4-[(5-cyclopropyl-2H-pyrazol-3-yl)amino]pyrimidine-2-carboxamide] here?
Answer: B, B*

Question: How did the “Ki Values” turn out when CC(=O)c1ccc(-c2ncc(Cl)c(Nc3cc(C4CC4)[nH]n3)n2)s1 [Compound 116, 1-(5-(5-chloro-4-(5-cyclopropyl-1H-pyrazol-3-ylamino)pyrimidin-2-yl)thiophen-2-yl)ethanone] was run?
Answer: A**, A*

same assay, conditions: 3 nM PknB, 6 uM GarA, 3 μM ATP, 30 min; competitive tight-binding fit; several symbols in a cell = repeat determinations; read-out: Ki Values

Question: Which Ki does the source give for Oc1cnc(-c2ccccc2)nc1Nc1cc(C2CC2)[nH]n1 [Compound 55, 4-(5-cyclopropyl-1H-pyrazol-3-ylamino)-2-phenylpyrimidin-5-ol] here?
Answer: 1000 to 2000 nM

Question: Which Ki does the source give for CC(C)(C)NS(=O)(=O)C/C=C/c1nccc(Nc2cc(C3CC3)[nH]n2)n1 [Compound 56, 3-[4-[(5-cyclopropyl-1H-pyrazol-3-yl)amino]pyrimidin-2-yl]-N-tert-butyl-prop-2-ene-1-sulfonamide] here?
Answer: 1000 to 2000 nM

Question: Which Ki does the source give for O=C(O)c1ccc(Nc2nccc(Nc3cc(C4CC4)n[nH]3)n2)cc1 [Compound 57, 4-[[4-[(5-cyclopropyl-2H-pyrazol-3-yl)amino]pyrimidin-2-yl]amino]benzoic acid] here?
Answer: 100 to 500 nM

Question: Which Ki does the source give for Clc1cnc(Nc2ccc3[nH]ncc3c2)nc1Nc1cc(C2CC2)[nH]n1 [Compound 62, 5-chloro-N4-(5-cyclopropyl-1H-pyrazol-3-yl)-N2-(1H-indazol-5-yl)pyrimidine-2,4-diamine] here?
Answer: > 4000 nM

Question: How did the Ki turn out when COCc1cnc(N2CCN(C)CC2)nc1Nc1cc(C2CC2)[nH]n1 [Compound 69, N-(5-cyclopropyl-1H-pyrazol-3-yl)-5-(methoxymethyl)-2-(4-methylpiperazin-1-yl)-pyrimidin-4-amine] was run?
Answer: > 4000 nM

Question: For COCc1cnc(N2CCCCC2)nc1Nc1cc(C2CC2)[nH]n1 [Compound 70, N-(5-cyclopropyl-1H-pyrazol-3-yl)-5-(methoxymethyl)-2-(1-piperidyl)pyrimidin-4-amine], which Ki is on record?
Answer: > 4000 nM

Question: With COCc1cnc(N2CCC(N3CCCCC3)CC2)nc1Nc1cc(C2CC2)[nH]n1 [Compound 71, N-(5-cyclopropyl-1H-pyrazol-3-yl)-5-(methoxymethyl)-2-[4-(1-piperidyl)-1-piperidyl]-pyrimidin-4-amine] as the compound, how does the Ki read?
Answer: 1000 to 2000 nM

Question: With CCCc1cnc(N2CCN(C)CC2)nc1Nc1cc(C2CC2)[nH]n1 [Compound 72, N-(5-cyclopropyl-1H-pyrazol-3-yl)-2-(4-methylpiperazin-1-yl)-5-propyl-pyrimidin-4-amine] as the compound, how does the Ki read?
Answer: > 4000 nM

Question: Which Ki does the source give for O=C(O)c1cccc(Nc2ncc(Cl)c(Nc3cc(C4CC4)[nH]n3)n2)c1 [Compound 73, 3-[[5-chloro-4-[(5-cyclopropyl-1H-pyrazol-3-yl)amino]-pyrimidin-2-yl]amino]benzoic acid] here?
Answer: 100 to 500 nM

Question: How did the Ki turn out when NCCNS(=O)(=O)c1ccc(-c2ncc(Cl)c(Nc3cc(C4CC4)[nH]n3)n2)s1 [Compound 75, N-(2-aminoethyl)-5-(5-chloro-4-(5-cyclopropyl-1H-pyrazol-3-ylamino)pyrimidin-2-yl)thiophene-2-sulfonamide] was run?
Answer: 1 to 10 nM

Question: Which Ki does the source give for Cc1cc(Nc2ccnc(Nc3ccc(S(N)(=O)=O)cc3)n2)[nH]n1 [Compound 76, 4-[[4-[(5-methyl-2H-pyrazol-3-yl)amino]pyrimidin-2-yl]amino]benzenesulfonamide] here?
Answer: 10 to 50 nM

Question: For NS(=O)(=O)c1cccc(Nc2nccc(Nc3cc(C4CC4)n[nH]3)n2)c1 [Compound 82], which Ki is on record?
Answer: 50 to 100 nM

Question: With N#Cc1ccc(Nc2ncc(Cl)c(Nc3cc(C4CC4)[nH]n3)n2)cc1 [Compound 84, 4-[[5-chloro-4-[(5-cyclopropyl-1H-pyrazol-3-yl)amino]-pyrimidin-2-yl]amino]benzonitrile] as the compound, how does the Ki read?
Answer: 10 to 50 nM

Question: Which Ki does the source give for C#Cc1cnc(-c2ccc(CC#N)cc2)nc1Nc1cc(C2CC2)[nH]n1 [Compound 85, 2-(4-(4-(5-cyclopropyl-1H-pyrazol-3-ylamino)-5-ethynylpyrimidin-2-yl)phenyl)acetonitrile] here?
Answer: 10 to 50 nM

Question: For N#Cc1cccc(Nc2ncc(Cl)c(Nc3cc(C4CC4)[nH]n3)n2)c1 [Compound 89, 3-[[5-chloro-4-[(5-cyclopropyl-1H-pyrazol-3-yl)amino]-pyrimidin-2-yl]amino]benzonitrile], which Ki is on record?
Answer: 100 to 500 nM

Question: Which Ki does the source give for N#CCc1ccc(-c2ncc(N)c(Nc3cc(C4CC4)[nH]n3)n2)cc1 [Compound 92, 2-(4-(5-amino-4-(5-cyclopropyl-1H-pyrazol-3-ylamino)pyrimidin-2-yl)phenyl)acetonitrile] here?
Answer: 10 to 50 nM

Question: For CC(=O)NCCNS(=O)(=O)c1cccc(-c2ncc(Cl)c(Nc3cc(C4CC4)[nH]n3)n2)c1 [Compound 96, N-[2-[[3-[5-chloro-4-[(5-cyclopropyl-1H-pyrazol-3-yl)amino]-pyrimidin-2-yl]phenyl]sulfonylamino]ethyl]acetamide], which Ki is on record?
Answer: 10 to 50 nM

Question: CN(C)CCNS(=O)(=O)c1cccc(-c2ncc(Cl)c(Nc3cc(C4CC4)[nH]n3)n2)c1 [Compound 97, 3-[5-chloro-4-[(5-cyclopropyl-1H-pyrazol-3-yl)amino]-pyrimidin-2-yl]-N-(2-dimethylaminoethyl)benzenesulfonamide] was tested. Which Ki did it give?
Answer: 10 to 50 nM

Question: With Nc1cccc(Nc2nccc(Nc3cc(C4CC4)n[nH]3)n2)c1 [Compound 100, N-(3-aminophenyl)-N′-(5-cyclopropyl-2H-pyrazol-3-yl)-pyrimidine-2,4-diamine] as the compound, how does the Ki read?
Answer: 100 to 500 nM

Question: How did the Ki turn out when CC(C)(C)NS(=O)(=O)c1cccc(-c2ncc(O)c(Nc3cc(C4CC4)n[nH]3)n2)c1 [Compound 102, N-tert-butyl-3-(4-(3-cyclopropyl-1H-pyrazol-5-ylamino)-5-hydroxypyrimidin-2-yl)benzenesulfonamide] was run?
Answer: 50 to 100 nM

Question: For C#Cc1cnc(-c2cccc(S(N)(=O)=O)c2)nc1Nc1cc(C2CC2)[nH]n1 [Compound 110, 3-(4-(5-cyclopropyl-1H-pyrazol-3-ylamino)-5-ethynylpyrimidin-2-yl)benzene sulfonamide], which Ki is on record?
Answer: 10 to 50 nM

Question: For CC(=O)NCCNS(=O)(=O)c1ccc(-c2ncc(Cl)c(Nc3cc(C4CC4)[nH]n3)n2)s1 [Compound 118, N-(2-(5-(5-chloro-4-(5-cyclopropyl-1H-pyrazol-3-ylamino)pyrimidin-2-yl)thiophene-2-sulfonamido)ethyl)acetamide], which Ki is on record?
Answer: 10 to 50 nM

Question: With C#Cc1cnc(-c2ccc(C(=C)C)s2)nc1Nc1cc(C2CC2)n[nH]1 [Compound 119, N-(5-cyclopropyl-2H-pyrazol-3-yl)-5-ethynyl-2-(5-isopropenyl-2-thienyl)-pyrimidin-4-amine] as the compound, how does the Ki read?
Answer: 10 to 50 nM

Question: For NS(=O)(=O)c1ccccc1Nc1nccc(Nc2cc(C3CC3)[nH]n2)n1 [Compound 120, 2-[[4-[(5-cyclopropyl-1H-pyrazol-3-yl)amino]pyrimidin-2-yl]amino]benzenesulfonamide], which Ki is on record?
Answer: 100 to 500 nM

Question: NS(=O)(=O)c1ccc(-c2ncc(Cl)c(Nc3cc(C4CC4)[nH]n3)n2)cc1 [Compound 121, 4-[5-chloro-4-[(5-cyclopropyl-1H-pyrazol-3-yl)amino]-pyrimidin-2-yl]benzenesulfonamide] was tested. Which Ki did it give?
Answer: 10 to 50 nM

Question: C#Cc1cnc(-c2cccc(S(=O)(=O)NCCO)c2)nc1Nc1cc(C2CC2)[nH]n1 [Compound 122, 3-(4-(3-Cyclopropyl-1H-pyrazol-5-ylamino)-5-ethynylpyrimidin-2-yl)-N-(2-hydroxyethyl)benzene sulfonamide] was tested. Which Ki did it give?
Answer: 10 to 50 nM

Question: Which Ki does the source give for NC(=O)c1cccc(Nc2nccc(Nc3cc(C4CC4)[nH]n3)n2)c1 [Compound 125, 3-[[4-[(5-cyclopropyl-1H-pyrazol-3-yl)amino]pyrimidin-2-yl]amino]benzamide] here?
Answer: 500 to 1000 nM
